Reference: US20230265151A1, “GIP/GLP1 CO-AGONIST COMPOUNDS” (priority 2020, published 2023)
Read-outs that look alike come from different tables or passages of the source. *1 amine or outer side, *2 acyl side, *3 side chain or, on linkers, in order; H or OH if unused. Where a SMILES comes first, the peptide text is derived from it. Side-chain parts run from the residue outwards. [ ]: non-standard residue; d: D form. The star is where a group is joined. Decanoyl(10-(4-HOOC-PhO)) = O=C(O)c1ccc(OCCCCCCCCCC(=O)*)cc1; αMePhe(2-F) = C[C@](N)(Cc1ccccc1F)C(=O)O; γGlu = O=C(O)[C@H](CCC(=O)[*:2])N[*:1]; αMeY = C[C@](N)(Cc1ccc(O)cc1)C(=O)O; αMeL = CC(C)C[C@](C)(N)C(=O)O; Orn = NCCC[C@H](N)C(=O)O; AEEA = NCCOCCOCC(=O)O; Aib = CC(C)(N)C(=O)O

Legend:
Format in all cases: cell-based
hGIPR = biological target: T1, hGIPR (Homo sapiens, UniProt P48546); assay: Functional cAMP formation (HTRF) in HEK-293 clonal cells expressing hGIPR, 0.1% bovine casein, without or with 1.0% human serum albumin; conditions: for Emax: percent of maximal response to GIP(1-42)NH2; for EC50: hGIPR EC50, nM (SEM, n), 37° C., geometric mean
T1 construct: expressed in transfected cells
T1 sequence (P48546 22-466): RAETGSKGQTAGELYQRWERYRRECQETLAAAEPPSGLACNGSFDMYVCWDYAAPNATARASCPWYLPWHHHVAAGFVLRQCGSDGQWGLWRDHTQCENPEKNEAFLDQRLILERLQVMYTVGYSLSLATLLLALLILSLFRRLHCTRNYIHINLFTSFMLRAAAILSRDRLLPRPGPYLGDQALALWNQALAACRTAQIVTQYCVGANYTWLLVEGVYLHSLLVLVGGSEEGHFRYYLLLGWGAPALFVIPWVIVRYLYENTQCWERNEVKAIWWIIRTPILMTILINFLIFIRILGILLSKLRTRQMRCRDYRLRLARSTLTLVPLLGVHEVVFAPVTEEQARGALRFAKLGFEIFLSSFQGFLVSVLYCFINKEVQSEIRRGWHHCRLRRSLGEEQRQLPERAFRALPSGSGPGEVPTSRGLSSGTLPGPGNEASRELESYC
Procedure, shortened: (§1)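 Cells were stimulated with peptide for 30 min at 37° C, then intracellular cAMP was measured by competitive HTRF (665/620 nm ratio) and converted to nM using a cAMP standard curve. Relative EC50 and Emax came from four-parameter logistic fits of percent maximal response against peptide concentration.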

hGCGR = biological target: T2, hGCGR (Homo sapiens, UniProt P47871); assay: Functional cAMP formation (HTRF) in HEK-293 clonal cells expressing hGCGR, 0.1% bovine casein, without or with 1.0% human serum albumin; conditions: hGCGR EC50, nM (SEM, n), 37° C., geometric mean
T2 construct: expressed in transfected cells
Procedure, shortened: as §1

hGLP-1R = hGLP-1R (Homo sapiens, UniProt P43220); assay: Functional cAMP formation (HTRF) in HEK-293 clonal cells expressing hGLP-1R, 0.1% bovine casein, without or with 1.0% human serum albumin; parameters: expressed in transfected cells; conditions: for Emax: percent of maximal response to GLP-1(7-36)NH2; for EC50: hGLP-1R EC50, nM (SEM, n), 37° C., geometric mean
Procedure, shortened: as §1

[1] = HEK293, read-out: hGIPR Emax, % ± SEM, 0.1% bovine casein and 1.0% human serum albumin, 37° C.
[2] = HEK293, read-out: hGIPR Emax, % ± SEM, cAMP, 37° C., 0.1% bovine casein, arithmetic mean
[3] = 0.1% bovine casein and 1.0% human serum albumin
[4] = cAMP, 0.1% bovine casein (no human serum albumin)
[5] = HEK293, read-out: hGLP-1R Emax, % ± SEM, 0.1% bovine casein and 1.0% human serum albumin, 37° C.
[6] = HEK293, read-out: hGLP-1R Emax, % ± SEM, cAMP, 37° C., 0.1% bovine casein, arithmetic mean

T2 sequence (P47871 26-477): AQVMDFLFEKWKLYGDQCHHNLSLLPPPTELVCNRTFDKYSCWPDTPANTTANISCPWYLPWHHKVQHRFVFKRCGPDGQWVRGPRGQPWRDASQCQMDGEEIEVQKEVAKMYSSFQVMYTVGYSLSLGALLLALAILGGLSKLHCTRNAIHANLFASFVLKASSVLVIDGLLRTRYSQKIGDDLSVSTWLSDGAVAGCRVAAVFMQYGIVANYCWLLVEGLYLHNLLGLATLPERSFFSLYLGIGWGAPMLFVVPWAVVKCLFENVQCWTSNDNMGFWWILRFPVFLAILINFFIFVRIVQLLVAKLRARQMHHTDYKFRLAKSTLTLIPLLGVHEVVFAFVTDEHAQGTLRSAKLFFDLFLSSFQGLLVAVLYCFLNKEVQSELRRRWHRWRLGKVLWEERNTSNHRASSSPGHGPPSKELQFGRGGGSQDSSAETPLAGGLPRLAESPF
Chain of hGLP-1R (P43220 24-463): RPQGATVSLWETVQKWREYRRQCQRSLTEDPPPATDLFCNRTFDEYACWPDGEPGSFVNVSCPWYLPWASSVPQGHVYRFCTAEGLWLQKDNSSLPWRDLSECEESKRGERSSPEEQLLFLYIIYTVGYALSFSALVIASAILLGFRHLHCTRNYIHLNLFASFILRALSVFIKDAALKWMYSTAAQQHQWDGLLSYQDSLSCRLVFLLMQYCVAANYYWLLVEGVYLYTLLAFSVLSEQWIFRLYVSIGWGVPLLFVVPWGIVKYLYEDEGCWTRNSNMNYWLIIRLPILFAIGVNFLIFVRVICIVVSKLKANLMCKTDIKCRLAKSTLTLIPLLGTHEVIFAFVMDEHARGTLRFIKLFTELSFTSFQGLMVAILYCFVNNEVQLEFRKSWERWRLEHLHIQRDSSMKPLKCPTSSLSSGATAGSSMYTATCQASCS

| Compound | Emax (hGIPR; [1]) | Emax (hGIPR; [2]) | EC50 (hGIPR; [3]) | EC50 (hGCGR; [3]) | EC50 (hGCGR; [4]) | Emax (hGLP-1R; [5]) | Emax (hGLP-1R; [6]) | EC50 (hGLP-1R; [3]) | EC50 (hGIPR; [4]) | EC50 (hGLP-1R; [4]) |
| --- | --- | --- | --- | --- | --- | --- | --- | --- | --- | --- |
| CC[C@H](C)[C@H](NC(=O)[C@H](CC(C)C)NC(=O)[C@](C)(Cc1ccc(O)cc1)NC(=O)[C@@H](CCC(=O)O)NC(=O)[C@@H](NC(=O)[C@H](Cc1ccccc1)NC(=O)[C@H](CCC(=O)O)NC(=O)C(C)(C)NC(=O)[C@H](CCC(N)=O)NC(=O)[C@H](C)NC(=O)[C@H](CCCCNC(=O)COCCOCCNC(=O)COCCOCCNC(=O)CC[C@H](NC(=O)CCCCCCCCCOc1ccc(C(=O)O)cc1)C(=O)O)NC(=O)[C@H](CCCN)NC(=O)[C@H](CC(=O)O)NC(=O)[C@H](CC(C)C)NC(=O)[C@](C)(CC(C)C)NC(=O)[C@@H](NC(=O)[C@H](CO)NC(=O)[C@H](Cc1ccc(OC)cc1)NC(=O)[C@H](CC(=O)O)NC(=O)[C@H](CO)NC(=O)[C@@H](NC(=O)[C@](C)(Cc1ccccc1F)NC(=O)[C@@H](NC(=O)CNC(=O)[C@H](CCC(=O)O)NC(=O)C(C)(C)NC(=O)[C@@H](N)Cc1ccc(O)cc1)[C@@H](C)O)[C@@H](C)O)[C@@H](C)CC)[C@@H](C)CC)C(=O)N[C@@H](CCCCNC(=O)COCCOCCNC(=O)COCCOCCNC(=O)CC[C@H](NC(=O)CCCCCCCCCOc1ccc(C(=O)O)cc1)C(=O)O)C(=O)NCC(=O)NCC(=O)N1CCC[C@H]1C(=O)N[C@@H](CO)C(=O)N[C@@H](CO)C(=O)NCC(=O)N[C@@H](C)C(=O)N1CCC[C@H]1C(=O)N1CCC[C@H]1C(=O)N1CCC[C@H]1C(=O)N[C@@H](CO)C(N)=O [Example 278] (H-Y[Aib]EGT[αMePhe(2-F)]TSDY(Me)SI[αMeL]LD[Orn]K([AEEA-AEEA-γGlu-Decanoyl(10-(4-HOOC-PhO))])AQ[Aib]EFI[dE][αMeY]LIK([AEEA-AEEA-γGlu-Decanoyl(10-(4-HOOC-PhO))])GGPSSGAPPPS-NH2) | 91.1% | 105% | 1.41 nM | > 9950 nM | > 9950 nM | 121% | 109% | 27 nM |  |  |
| CC[C@H](C)[C@H](NC(=O)[C@H](CCCN)NC(=O)[C@H](CC(=O)O)NC(=O)[C@H](CC(C)C)NC(=O)[C@](C)(CC(C)C)NC(=O)[C@@H](NC(=O)[C@H](CO)NC(=O)[C@H](Cc1ccc(OC)cc1)NC(=O)[C@H](CC(=O)O)NC(=O)[C@H](CO)NC(=O)[C@@H](NC(=O)[C@](C)(Cc1ccccc1F)NC(=O)[C@@H](NC(=O)CNC(=O)[C@H](CCC(=O)O)NC(=O)C(C)(C)NC(=O)[C@@H](N)Cc1ccc(O)cc1)[C@@H](C)O)[C@@H](C)O)[C@@H](C)CC)C(=O)N[C@@H](C)C(=O)N[C@@H](CCC(N)=O)C(=O)NC(C)(C)C(=O)N[C@@H](CCC(=O)O)C(=O)N[C@@H](Cc1ccccc1)C(=O)N[C@H](C(=O)N[C@@H](CCCCNC(=O)COCCOCCNC(=O)COCCOCCNC(=O)CC[C@H](NC(=O)CCCCCCCCCOc1ccc(C(=O)O)cc1)C(=O)O)C(=O)N[C@@](C)(Cc1ccc(O)cc1)C(=O)N[C@@H](CC(C)C)C(=O)N[C@H](C(=O)N[C@@H](CCCCNC(=O)COCCOCCNC(=O)COCCOCCNC(=O)CC[C@H](NC(=O)CCCCCCCCCOc1ccc(C(=O)O)cc1)C(=O)O)C(=O)NCC(=O)NCC(=O)N1CCC[C@H]1C(=O)N[C@@H](CO)C(=O)N[C@@H](CO)C(=O)NCC(=O)N[C@@H](C)C(=O)N1CCC[C@H]1C(=O)N1CCC[C@H]1C(=O)N1CCC[C@H]1C(=O)N[C@@H](CO)C(N)=O)[C@@H](C)CC)[C@@H](C)CC [Example 279] (H-Y[Aib]EGT[αMePhe(2-F)]TSDY(Me)SI[αMeL]LD[Orn]IAQ[Aib]EFIK([AEEA-AEEA-γGlu-Decanoyl(10-(4-HOOC-PhO))])[αMeY]LIK([AEEA-AEEA-γGlu-Decanoyl(10-(4-HOOC-PhO))])GGPSSGAPPPS-NH2) | 88.6% |  |  | > 9950 nM | > 9950 nM | 114% | 112% | 36.6 nM | 0.0305 nM | 0.406 nM |
| CC[C@H](C)[C@H](NC(=O)[C@H](CCCN)NC(=O)[C@H](CC(=O)O)NC(=O)[C@H](CC(C)C)NC(=O)[C@](C)(CC(C)C)NC(=O)[C@@H](NC(=O)[C@H](CO)NC(=O)[C@H](Cc1ccc(OC)cc1)NC(=O)[C@H](CC(=O)O)NC(=O)[C@H](CO)NC(=O)[C@@H](NC(=O)[C@](C)(Cc1ccccc1F)NC(=O)[C@@H](NC(=O)CNC(=O)[C@H](CCC(=O)O)NC(=O)C(C)(C)NC(=O)[C@@H](N)Cc1ccc(O)cc1)[C@@H](C)O)[C@@H](C)O)[C@@H](C)CC)C(=O)N[C@@H](C)C(=O)N[C@@H](CCC(N)=O)C(=O)NC(C)(C)C(=O)N[C@@H](CCCCNC(=O)COCCOCCNC(=O)COCCOCCNC(=O)CC[C@H](NC(=O)CCCCCCCCCOc1ccc(C(=O)O)cc1)C(=O)O)C(=O)N[C@@H](Cc1ccccc1)C(=O)N[C@H](C(=O)N[C@H](CCC(=O)O)C(=O)N[C@@](C)(Cc1ccc(O)cc1)C(=O)N[C@@H](CC(C)C)C(=O)N[C@H](C(=O)N[C@@H](CCCCNC(=O)COCCOCCNC(=O)COCCOCCNC(=O)CC[C@H](NC(=O)CCCCCCCCCOc1ccc(C(=O)O)cc1)C(=O)O)C(=O)NCC(=O)NCC(=O)N1CCC[C@H]1C(=O)N[C@@H](CO)C(=O)N[C@@H](CO)C(=O)NCC(=O)N[C@@H](C)C(=O)N1CCC[C@H]1C(=O)N1CCC[C@H]1C(=O)N1CCC[C@H]1C(=O)N[C@@H](CO)C(N)=O)[C@@H](C)CC)[C@@H](C)CC [Example 280] | 88.5% | 105% | 4.84 nM | > 9950 nM | > 9950 nM | 105% |  |  | 0.0229 nM | 0.346 nM |
| CC[C@H](C)[C@H](NC(=O)[C@H](CC(C)C)NC(=O)[C@](C)(Cc1ccc(O)cc1)NC(=O)[C@@H](CCC(=O)O)NC(=O)[C@@H](NC(=O)[C@H](Cc1ccccc1)NC(=O)[C@H](CCCCNC(=O)COCCOCCNC(=O)COCCOCCNC(=O)CC[C@H](NC(=O)CCCCCCCCCOc1ccc(C(=O)O)cc1)C(=O)O)NC(=O)C(C)(C)NC(=O)[C@H](CCC(N)=O)NC(=O)[C@H](C)NC(=O)[C@H](CCCCNC(=O)COCCOCCNC(=O)COCCOCCNC(=O)CC[C@H](NC(=O)CCCCCCCCCOc1ccc(C(=O)O)cc1)C(=O)O)NC(=O)[C@H](CCCN)NC(=O)[C@H](CC(=O)O)NC(=O)[C@H](CC(C)C)NC(=O)[C@](C)(CC(C)C)NC(=O)[C@@H](NC(=O)[C@H](CO)NC(=O)[C@H](Cc1ccc2ccccc2c1)NC(=O)[C@H](CC(=O)O)NC(=O)[C@H](CO)NC(=O)[C@@H](NC(=O)[C@](C)(Cc1ccccc1F)NC(=O)[C@@H](NC(=O)CNC(=O)[C@H](CCC(=O)O)NC(=O)C(C)(C)NC(=O)[C@@H](N)Cc1ccc(O)cc1)[C@@H](C)O)[C@@H](C)O)[C@@H](C)CC)[C@@H](C)CC)C(=O)N[C@@H](CCC(=O)O)C(=O)NCC(=O)NCC(=O)N1CCC[C@H]1C(=O)N[C@@H](CO)C(=O)N[C@@H](CO)C(=O)NCC(=O)N[C@@H](C)C(=O)N1CCC[C@H]1C(=O)N1CCC[C@H]1C(=O)N1CCC[C@H]1C(=O)N[C@@H](CO)C(N)=O [Example 281] | 97.9% | 110% | 1.87 nM | > 9950 nM | > 9950 nM | 91.7% |  |  | 0.0187 nM | 0.252 nM |
| CC[C@H](C)[C@H](NC(=O)[C@H](CCCN)NC(=O)[C@H](CC(=O)O)NC(=O)[C@H](CC(C)C)NC(=O)[C@](C)(CC(C)C)NC(=O)[C@@H](NC(=O)[C@H](CO)NC(=O)[C@H](Cc1ccc2ccccc2c1)NC(=O)[C@H](CC(=O)O)NC(=O)[C@H](CO)NC(=O)[C@@H](NC(=O)[C@](C)(Cc1ccccc1F)NC(=O)[C@@H](NC(=O)CNC(=O)[C@H](CCC(=O)O)NC(=O)C(C)(C)NC(=O)[C@@H](N)Cc1ccc(O)cc1)[C@@H](C)O)[C@@H](C)O)[C@@H](C)CC)C(=O)N[C@@H](C)C(=O)N[C@@H](CCC(N)=O)C(=O)NC(C)(C)C(=O)N[C@@H](CCC(=O)O)C(=O)N[C@@H](Cc1ccccc1)C(=O)N[C@H](C(=O)N[C@@H](CCCCNC(=O)COCCOCCNC(=O)COCCOCCNC(=O)CC[C@H](NC(=O)CCCCCCCCCOc1ccc(C(=O)O)cc1)C(=O)O)C(=O)N[C@@](C)(Cc1ccc(O)cc1)C(=O)N[C@@H](CC(C)C)C(=O)N[C@H](C(=O)N[C@@H](CCCCNC(=O)COCCOCCNC(=O)COCCOCCNC(=O)CC[C@H](NC(=O)CCCCCCCCCOc1ccc(C(=O)O)cc1)C(=O)O)C(=O)NCC(=O)NCC(=O)N1CCC[C@H]1C(=O)N[C@@H](CO)C(=O)N[C@@H](CO)C(=O)NCC(=O)N[C@@H](C)C(=O)N1CCC[C@H]1C(=O)N1CCC[C@H]1C(=O)N1CCC[C@H]1C(=O)N[C@@H](CO)C(N)=O)[C@@H](C)CC)[C@@H](C)CC [Example 283] | 114% |  |  | > 9950 nM | > 9950 nM | 96.6% |  |  |  | 1.14 nM |
